{"source": "patent US10364230B2", "about": "“Chromene-2 derivatives and use thereof in the treatment of fibrosis” (ALTAY THERAPEUTICS, INC., priority 2014, dated 2019)", "key": {"[1]": {"system": "TGFbeta-induced secreted collagen synthesis in L929 cells", "assay": "TGFbeta-induced secreted collagen in L929 cells (anti-collagen type I ELISA)", "format": "cell-based", "details": "50 micromole CP1, 5 ng/ml Mouse TGFβ2, 72 hours, culture supernatant, FIG. 3", "description": "(§1) The present invention is about novel compounds which may offer alternative treatment options against IPF, which believed to develop as a consequences of smoking, pollution, allergens, toxins and seen in people who are older than 50 years old. The compounds mentioned in this application have been generated from “6,7-dimethoxy 2H-chromen-one (1), which was identified from local medicinal plants during our screening studies. The anti-fibrotic activity of this compound (“6,7-dimethoxy 2H-chromen-one (I) against TGF beta-induced collagen synthesis using 1.929 cells has been identified. For this, in 96-well plates, 1.929 cells were cultured in DMEM supplemented with % 10 serum, 10 μg/ml ascorbic acid and 20 μM prolin until they reached to confluency. Confluent cells were treated with 50 micromole of our compound (named as CP1) dissolved in DMSO for 1 hour, then 5 ng/ml of Mouse TGFβ2 was added and cells were further incubated for 72 hours at incubator supplied with 5% CO2 and 80% humidity. At the end of this incubation one of the plate was used to determine cell viability by using MTT test, FIG. 2. The second 96-well plate was used to determine the level of total collagen. […] Absorbance of developed color was determined at 600 nm. […] In addition to total collagen, we also determined the level of “secreted collagen” by using ELISA. […]"}, "[2]": {"system": "TGFbeta-induced collagen synthesis in L929 cells", "assay": "TGFbeta-induced total collagen synthesis in L929 cells (sircol dye)", "format": "cell-based", "details": "50 micromole CP1 for 1 hour, then 5 ng/ml Mouse TGFβ2, 72 hours, FIG. 1", "description": "as §1"}}, "data": [{"smiles": "COc1cc2ccc(=O)oc2cc1OC", "note": "[CP1, 6,7-dimethoxy 2H-chromen-2-one]", "values": [{"measurement": "effect on TGFβ-induced secreted collagen level", "setting": "[1]", "value": "significantly inhibits"}, {"measurement": "TGFβ-induced collagen level in the presence of CP1, compared to control cells", "setting": "[2]; TGFβ alone induced % 20", "value": 10, "unit": "%"}, {"measurement": "inhibition of TGFβ-induced collagen synthesis", "setting": "[2]; total collagen, sircol, absorbance 600 nm", "value": 50, "unit": "%"}]}]}
